In patent US9675614B2, “PRMT5 inhibitors and uses thereof” (Epizyme, Inc., priority 2012, dated 2017):
Where two headings read alike, the source gives them in different places.

Molecular target: PRMT5/MEP50 (Homo sapiens (Human), UniProt O14744)
Experiment: PRMT5 Biochemical Assay (PRMT5/MEP50 enzyme assay on peptide substrate, 3H-SAM Flashplate)
Source text: S-adenosylmethionine (SAM), S-adenosylhomocysteine (SAH), bicine, KCl, Tween20, dimethylsulfoxide (DMSO), bovine skin gelatin (BSG), and Tris(2-carboxyethyl)phosphine hydrochloride solution (TCEP) were purchased from Sigma-Aldrich at the highest level of purity possible. ^3H-SAM was purchase from American Radiolabeled Chemicals with a specific activity of 80 Ci/mmol. 384-well streptavidin Flashplates were purchased from PerkinElmer.
Peptide representative of human histone H4 residues 1-15 was synthesized with a C-terminal linker-affinity tag motif and a C-terminal amide cap by 21st Century Biochemicals. […] The sequence was Ac-[…][K-Biot]amide (SEQ ID NO.:3).
Full-length human MEP50 (NM_024102) clone was amplified from a human testis cDNA library incorporating a 5′ sequence encoding a 6-histidine tag (MHHHHHH) (SEQ ID NO.:5) fused directly to Arg 2 of MEP50. The amplified genes were subcloned into pENTR/D/TEV (Life Technologies) and subsequently transferred by Gateway™ attL×attR recombination to pDEST8 baculvirus expression vector (Life Technologies).
Recombinant baculovirus and Baculovirus-Infected Insect Cells (BIIC) were generated according to Bac-to-Bac kit instructions (Life Technologies) and Wasilko, 2006, respectively. Protein over-expression was accomplished by infecting exponentially growing Spodoptera frugiperda (SF9) cell culture at 1.2×10^6 cell/ml with a 5000 fold dilution of BIIC stock. Infections were carried out at 27° C. for 72 hours, harvested by centrifugation, and stored at −80° C. for purification.
Flag-PRMT5/6His-MeP50 was eluted with 300 mM Imidazole in the same buffer. […] Reference: Wasilko, D. J. and S. E. Lee: “TIPS: titerless infected-cells preservation and scale-up” Bioprocess J., 5 (2006), pp. 29-32.
General Procedure for PRMT5/MEP50 Enzyme Assays on Peptide Substrates.
The assays were all performed in a buffer consisting of 20 mM Bicine (pH=7.6), 1 mM TCEP, 0.005% BSG, and 0.002% Tween20, prepared on the day of use. Compounds in 100% DMSO (1 ul) were spotted into a polypropylene 384-well V-bottom plates (Greiner) using a Platemate Plus outfitted with a 384-channel head (Thermo Scientific). DMSO (1 ul) was added to Columns 11, 12, 23, 24, rows A-H for the maximum signal control and 1 ul of SAH, a known product and inhibitor of PRMT5/MEP50, was added to columns 11, 12, 23, 24, rows I-P for the minimum signal control. A cocktail (40 ul) containing the PRMT5/MEP50 enzyme and the peptide was added by Multidrop Combi (Thermo-Fisher). The compounds were allowed to incubate with PRMT5/MEP50 for 30 min at 25 degrees Celsius, then a cocktail (10 ul) containing ^3H-SAM was added to initiate the reaction (final volume=51 ul). The final concentrations of the components were as follows: PRMT5/MEP50 was 4 nM, ^3H-SAM was 75 nM, peptide was 40 nM, SAH in the minimum signal control wells was 100 uM, and the DMSO concentration was 1%. The assays were stopped by the addition of non-radioactive SAM (10 ul) to a final concentration of 600 uM, which dilutes the ^3H-SAM to a level where its incorporation into the peptide substrate is no longer detectable. 50 ul of the reaction in the 384-well polypropylene plate was then transferred to a 384-well Flashplate and the biotinylated peptides were allowed to bind to the streptavidin surface for at least 1 hour before being washed three times with 0.1% Tween20 in a Biotek ELx405 plate washer. The plates were then read in a PerkinElmer TopCount plate reader to measure the quantity of ^3H-labeled peptide bound to the Flashplate surface, measured as disintegrations per minute (dpm) or alternatively, referred to as counts per minute (cpm).
[formula] Where dpm=disintegrations per minute, cmpd=signal in assay well, and min and max are the respective minimum and maximum signal controls.
[formula] Where top and bottom are the normally allowed to float, but may be fixed at 100 or 0 respectively in a 3-parameter fit.

[1] = PRMT5/MEP50 biochemical assay, read-out: Biochemical IC50

Sequence of PRMT5/MEP50 (O14744 other isoform, or with tags, fused parts or gaps): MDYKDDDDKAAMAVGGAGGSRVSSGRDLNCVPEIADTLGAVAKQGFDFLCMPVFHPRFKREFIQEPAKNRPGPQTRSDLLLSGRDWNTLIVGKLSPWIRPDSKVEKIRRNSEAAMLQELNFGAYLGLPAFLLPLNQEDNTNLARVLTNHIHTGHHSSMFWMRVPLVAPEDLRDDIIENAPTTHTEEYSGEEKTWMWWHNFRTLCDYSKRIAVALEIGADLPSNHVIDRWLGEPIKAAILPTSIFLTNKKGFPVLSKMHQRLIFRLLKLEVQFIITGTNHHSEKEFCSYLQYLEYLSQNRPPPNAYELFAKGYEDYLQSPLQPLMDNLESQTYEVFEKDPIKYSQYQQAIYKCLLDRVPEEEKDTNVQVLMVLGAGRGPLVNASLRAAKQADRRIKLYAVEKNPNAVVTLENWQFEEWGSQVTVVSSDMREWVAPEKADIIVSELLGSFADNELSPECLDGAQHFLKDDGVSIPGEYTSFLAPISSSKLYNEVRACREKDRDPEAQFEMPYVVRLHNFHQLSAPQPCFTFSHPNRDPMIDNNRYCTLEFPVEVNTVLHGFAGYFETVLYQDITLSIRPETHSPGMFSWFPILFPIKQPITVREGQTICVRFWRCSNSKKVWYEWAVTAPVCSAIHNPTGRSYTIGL
Sequence of PRMT5/MEP50 (Q9BQA1 other isoform, or with tags, fused parts or gaps partner): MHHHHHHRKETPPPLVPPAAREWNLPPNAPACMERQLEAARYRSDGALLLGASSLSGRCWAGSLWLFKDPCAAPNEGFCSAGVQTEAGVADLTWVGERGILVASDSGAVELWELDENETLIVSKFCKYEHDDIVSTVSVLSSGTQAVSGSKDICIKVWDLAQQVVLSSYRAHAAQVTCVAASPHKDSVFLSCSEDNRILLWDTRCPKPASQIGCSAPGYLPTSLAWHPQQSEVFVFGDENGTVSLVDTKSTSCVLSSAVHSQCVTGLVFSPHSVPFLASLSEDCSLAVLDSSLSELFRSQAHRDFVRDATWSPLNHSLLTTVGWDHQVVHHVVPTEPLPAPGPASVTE

| SMILES | IC50 [1] | IC50 |
| --- | --- | --- |
| O=C(NCC(O)CN1CCc2ccccc2C1)c1cc(NC2CCOCC2)ccn1 (stereo not drawn) [Compound 55, N-(3-(3,4-dihydroisoquinolin-2(1H)-yl)-2-hydroxypropyl)-4-((tetrahydro-2H-pyran-4-yl)amino)picolinamide] | < 0.1 µM | – |
| CS(=O)(=O)N1CCC(Nc2cc(C(=O)NC[C@H](O)CN3CCc4ccccc4C3)ccn2)C1 (stereo partly drawn) [Compound 227] | < 0.1 µM | – |
| O=C(NC[C@@H](O)CN1CCc2ccccc2C1)Nc1ccccc1 [Compound 6] | 1 to 10 µM | – |
| CC(C)N1CCC(Nc2cccc(C(=O)NCC(O)CN3CCc4ccccc4C3)c2)CC1 (stereo not drawn) [Compound 103] | < 0.1 µM | – |
| O=C(NCC(O)CN1CCc2ccccc2C1)c1ccc(-n2cncn2)cc1 (stereo not drawn) [Compound 110] | < 0.1 µM | – |
| O=C(NC[C@H](O)CN1CCc2ccccc2C1)c1ccnc(NC2CCNC2)c1 (stereo partly drawn) [Compound 201] | < 0.1 µM | – |
| CS(=O)(=O)N1CC(Nc2cc(C(=O)NC[C@H](O)CN3CCc4ccccc4C3)ncn2)C1 [Compound 283] | < 0.1 µM | – |
| O=C(NC[C@H](O)CN1CCc2ccccc2C1)c1cc(NC2CNC2)ncn1 [Compound 280] | < 0.1 µM | – |
| O=C(NCC(O)CN1CCc2ccccc2C1)c1ccc(OC2CCNC2)cc1 (stereo not drawn) [Compound 176] | < 0.1 µM | – |
| Cc1ccc2cc(C(=O)NC[C@H](O)CN3CCc4ccccc4C3)ccc2n1 [Compound 221, (S)—N-(3-(3,4-dihydroisoquinolin-2(1H)-yl)-2-hydroxypropyl)-2-methylquinoline-6-carboxamide] | < 0.1 µM | – |
| O=C(NCC(O)CN1CCc2ccccc2C1)c1cncc(NC2CCOCC2)c1 (stereo not drawn) [Compound 54, N-(3-(3,4-dihydroisoquinolin-2(1H)-yl)-2-hydroxypropyl)-5-((tetrahydro-2H-pyran-4-yl)amino)nicotinamide] | < 0.1 µM | – |
| CC(=O)N1CCC(Nc2cccc(C(=O)NC[C@H](O)CN3CCc4ccccc4C3)c2)CC1 [Compound 215] | < 0.1 µM | – |
| CS(=O)(=O)N1CCC(Oc2cc(C(=O)NC[C@H](O)CN3CCc4ccccc4C3)ccn2)CC1 [Compound 204] | < 0.1 µM | – |
| COc1ccc2cc(C(=O)NC[C@H](O)CN3CCc4ccccc4C3)ccc2c1 [Compound 251] | < 0.1 µM | – |
| Cn1cc(C(=O)NC[C@H](O)CN2CCc3ccccc3C2)c2ccccc21 [Compound 246] | < 0.1 µM | – |
| O=C(NC[C@H](O)CN1CCc2ccccc2C1)c1n[nH]c2ccccc12 [Compound 242] | < 0.1 µM | – |
| CN(C)CCNc1cc(C(=O)NC[C@H](O)CN2CCc3ccccc3C2)ccn1 [Compound 214] | < 0.1 µM | – |
| CN1CCC(Nc2cccc(C(=O)NC[C@H](O)CN3CCc4ccccc4C3)c2)CC1 [Compound 239] | < 0.1 µM | – |
| Cn1ccc(C(=O)NCC(O)CN2CCc3ccccc3C2)n1 (stereo not drawn) [Compound 149] | 0.101 to 1 µM | – |
| CC(=O)N1CCC(Oc2ccc(C(=O)NCC(O)CN3CCc4ccccc4C3)cc2)CC1 (stereo not drawn) [Compound 107] | < 0.1 µM | – |
| CN1CCN(Cc2cccc(C(=O)NCC(O)CN3CCc4ccccc4C3)c2)CC1 (stereo not drawn) [Compound 30, N-(3-(3,4-dihydroisoquinolin-2(1H)-yl)-2-hydroxypropyl)-3-((4-methylpiperazin-1-yl)methyl)benzamide] | < 0.1 µM | – |
| O=C(NCC(O)CN1CCc2ccccc2C1)c1cccc(CN2CCNCC2)c1 (stereo not drawn) [Compound 29] | < 0.1 µM | – |
| O=C(NCC(O)CN1CCc2ccccc2C1)c1ccc(F)c(NC2CCOCC2)c1 (stereo not drawn) [Compound 65] | < 0.1 µM | – |
| O=C(NCC(O)CN1CCc2ccccc2C1)c1cccc(NC2CCNC2)c1 (stereo not drawn) [Compound 93] | 0.101 to 1 µM | – |
| O=C(NC[C@H](O)CN1CCc2ccccc2C1)c1cncc(NC2CCN(CC(F)(F)F)CC2)c1 [Compound 300] | < 0.1 µM | – |
| O=C(NC[C@H](O)CN1CCc2ccccc2C1)Oc1ccccc1 [Compound 7] | – | 1 to 10 µM |
| O=C(NC[C@H](O)CN1CCc2ccccc2C1)c1nccc2ccccc12 [Compound 272] | < 0.1 µM | – |

| SMILES | IC50 [1] | IC50 |
| --- | --- | --- |
| Cn1nccc1C(=O)NCC(O)CN1CCc2ccccc2C1 (stereo not drawn) [Compound 150] | 0.101 to 1 µM | – |
| CNC(=O)CNCc1cccc(C(=O)NCC(O)CN2CCc3ccccc3C2)c1 (stereo not drawn) [Compound 117] | 0.101 to 1 µM | – |
| CC(=O)N1CCC(Nc2ccc(C(=O)NCC(O)CN3CCc4ccccc4C3)cc2)CC1 (stereo not drawn) [Compound 127] | < 0.1 µM | – |
| O=C(NC[C@H](O)CN1CCc2ccccc2C1)c1c[nH]c2ccccc12 [Compound 240] | 0.101 to 1 µM | – |
| CN1CCC(Nc2cc(C(=O)NC[C@H](O)CN3CCc4ccccc4C3)ncn2)C1 (stereo partly drawn) [Compound 181] | < 0.1 µM | – |
| O=C(NCC(O)CN1CCc2ccccc2C1)c1cccc(C2CCOCC2)c1 (stereo not drawn) [Compound 99] | < 0.1 µM | – |
| O=C(NCC(O)CN1CCc2ccccc2C1)c1cccc(-c2cccnc2)c1 (stereo not drawn) [Compound 8, N-(3-(3,4-dihydroisoquinolin-2(1H)-yl)-2-hydroxypropyl)-3-(pyridin-3-yl)benzamide] | < 0.1 µM | – |
| O=C(NC[C@H](O)CN1CCc2ccccc2C1)c1cncc(OC2CCN(CC(F)(F)F)CC2)c1 [Compound 289] | 0.101 to 1 µM | – |
| CS(=O)(=O)N1CCC(Nc2cccc(C(=O)NCC(O)CN3CCc4ccccc4C3)c2)CC1 (stereo not drawn) [Compound 125] | < 0.1 µM | – |
| CS(=O)(=O)N1CCC(Nc2cncc(C(=O)NC[C@H](O)CN3CCc4ccccc4C3)c2)CC1 [Compound 301] | < 0.1 µM | – |
| CN1CCC(Oc2ccc(C(=O)NCC(O)CN3CCc4ccccc4C3)cc2)CC1 (stereo not drawn) [Compound 105] | < 0.1 µM | – |
| O=C(NC[C@H](O)CN1CCc2ccccc2C1)c1cccc2ccccc12 [Compound 295] | 0.101 to 1 µM | – |
| CCOC(=O)CN1CCN(Cc2cccc(C(=O)NCC(O)CN3CCc4ccccc4C3)c2)CC1 (stereo not drawn) [Compound 165] | < 0.1 µM | – |
| O=C(NC[C@H](O)CN1CCc2ccccc2C1)c1ccnc(NCc2ccncc2)c1 [Compound 189] | < 0.1 µM | – |
| O=C(NC[C@H](O)CN1CCc2ccccc2C1)c1cnc2ccccc2n1 [Compound 245] | < 0.1 µM | – |
| CC(=O)N1CC[C@@H](Nc2cccc(C(=O)NC[C@H](O)CN3CCc4ccccc4C3)c2)C1 [Compound 293] | < 0.1 µM | – |
| CS(=O)(=O)N1CCC(Nc2cc(C(=O)NC[C@H](O)CN3CCc4ccccc4C3)ccn2)CC1 [Compound 225] | < 0.1 µM | – |
| O=C(NC[C@@H](O)CN1CCc2ccccc2C1)c1cccc(-c2ccccn2)c1 [Compound 19] | < 0.1 µM | – |
| O=C(NC[C@@H](O)CN1CCc2ccccc2C1)Oc1ccccc1 [Compound 11, (R)-phenyl (3-(3,4-dihydroisoquinolin-2(1H)-yl)-2-hydroxypropyl)carbamate] | < 0.1 µM | – |
| CC(c1cccc(C(=O)NCC(O)CN2CCc3ccccc3C2)c1)N1CCN(C)CC1 (stereo not drawn) [Compound 161] | < 0.1 µM | – |
| CN(C)C(=O)CNCc1cccc(C(=O)NCC(O)CN2CCc3ccccc3C2)c1 (stereo not drawn) [Compound 118] | < 0.1 µM | – |
| O=C(NCC(O)CN1CCc2ccccc2C1)c1nccc(NC2CCOCC2)n1 (stereo not drawn) [Compound 76] | 0.101 to 1 µM | – |
| O=C(NCC(O)CN1CCc2ccccc2C1)c1cccc(NC2CCOCC2)n1 (stereo not drawn) [Compound 73] | < 0.1 µM | – |
| CNCCNc1cc(C(=O)NC[C@H](O)CN2CCc3ccccc3C2)ccn1 [Compound 314] | < 0.1 µM | – |
| Cc1ccc2cc(C(=O)NC[C@@H](O)CN3CCc4ccccc4C3)ccc2n1 [Compound 219, (R)—N-(3-(3,4-dihydroisoquinolin-2(1H)-yl)-2-hydroxypropyl)-2-methylquinoline-6-carboxamide] | < 0.1 µM | – |
| CN(C)C(=O)CCCN1CCN(Cc2cccc(C(=O)NCC(O)CN3CCc4ccccc4C3)c2)CC1 (stereo not drawn) [Compound 194] | < 0.1 µM | – |
| O=C(NCC(O)CN1CCc2ccccc2C1)c1ccnc(NC2CCOCC2)n1 (stereo not drawn) [Compound 62] | < 0.1 µM | – |
